Test results: patent publication US20250134860A1, “NOVEL COMPOUND, AND COMPOSITION FOR PREVENTING, ALLEVIATING OR TREATING BACTERIAL INFLAMMATION AND INFLAMMASOME-MEDIATED DISEASES, COMPRISING SAME AS ACTIVE INGREDIENT” (Quorum Bio Co., Ltd., priority 2022, published 2025)

Key:
[1] = Plasma stability in rat plasma (LC-MS/MS); type: in vitro ADME; conditions: 37° C., 0, 30, 60, 120, 240 minutes
Procedure: (§1) The compounds of Examples 1-2 and Comparative Example, and the substance used as the positive control (Eucatropine, Loterpresnol) were dissolved in DMSO to prepare a stock solution having a concentration of 10 mM. The stock solution of each test substance was then diluted to prepare 0.2 mM and 1 mM working solutions and used for the test (For the comparative example compound, 70% acetonitrile was used as a solvent, and for the compound of Example 1-2, 50% acetonitrile was used as a solvent).
(§2) The positive control and the standard solution of the test substance were placed in tubes containing two types of plasma (human and rat) at concentrations of 1 μM and 5 μM, respectively, and then incubated at 37° C. for a prescribed time (0, 30, 60, 120, 240 minutes) while shaking and mixing. At each time point, the mixture sample was dispensed in 100 μl increments into a cell culture plate (96-well plate) containing 400 μl of quench reagent to terminate the test, After centrifugation (5000×g, 10 min), 100 μl of the supernatant was taken out, mixed with 200 μl of ultrapure water, and the solution was then injected into a LC-MS/MS system to analyze the drug in each time zone. Thereby, the plasma stability of the compounds of Comparative Example and Example 1-2 was evaluated.

[2] = tested on: P. aeruginosa; assay: Inhibitory effect on biofilm formation in P. aeruginosa; type: cell-based, Pseudomonas aeruginosa; conditions: 0.006, 0.06, 0.6 μg/ml; 48 hours; compared with control (CT)
Procedure: The inhibitory effect of the compound of Example 1-2 on biofilm formation in P. aeruginosa (available from the Korean Collection for Oral Microbiology (KCOM)) and A. baumannii (available from the Korea Culture Center of Microorganisms (KCCM)) was confirmed.
Sterilized cover glass slips (round, 12 mm radius) were placed individually at a bottom of each well of a cell culture plate (24-well plate) using forceps, and the compound of Example 1-2 was diluted in the medium (P. aeruginosa: LB medium, A. baumannii: NB medium) cultured with bacteria so that the final concentrations were 0.006 μg/ml, 0.06 μg/ml, and 0.6 μg/ml.
The prepared culture medium was dispensed into a cell culture plate in which glass slips were placed, and the respective bacteria were inoculated to a concentration of 2×10^7 cells/ml. […]
The biofilm in which bacteria cultured for each group were formed on glass slips was stained with 1% crystal violet solution for 15 minutes, and then washed three times with PBS (phosphate buffered saline) solution, and decolorized with acetone-alcohol (20:80, vol/vol). After the decolorizing solution containing crystal violet was put in 200 μl increments in a 96-well microplate for each group, the absorbance (OD590nm) was measured using an absorbance microplate reader (Epoch2, Bio-Tek, USA), and the biofilm formation level was compared.

[3] = tested on: mouse bone marrow-derived macrophages; assay: Cytotoxicity in mouse bone marrow-derived macrophages (MTT); type: cell-based; conditions: at a concentration of 16 μM or less (0.5-16 μM tested), 24 hours
Procedure: Bone marrow was isolated from the femur and tibia of 8-12 week old C57BL/6J mice (available from Daehan Biolink) using a 26 g syringe, and the isolated bone marrow was differentiated into macrophages by culturing a medium containing IMDM media+30% L929 cell supernatant+10% fetal bovine serum+1% pencillin/streptomycin+1% non-essential amino acid+1% sodium pyruvate in a 150TT cell culture plate for 6 days, and used for the experiment.
The differentiated macrophages were seeded in 200 μl increments in a 48-well plate at a concentration of 1×10^6 cell/ml, and stabilized at 37° C. and 5% CO2 for 12 hours. […]
Then, the supernatant of the cultured cells was removed, treated with 200 μl of MTT solution having a concentration of 400 μg/ml, and then reacted at […] and 5% CO2 for 4 hours. Then, the reaction solution was removed, 200 μl of DMSO was added, and the absorbance was measured at 570 nm. At this time, the viability of cells treated with the sample was calculated based on the viability of untreated cells considered as 100%, and is shown in FIG. 6. […]
The supernatant of the cultured cells was then removed, 200 μl of MTT solution having a concentration of 400 μg/ml was added, and then reacted at […] and 5% CO2 for 4 hours. Then, the reaction solution was removed, 200 μl of DMSO was added, and the absorbance was measured at 570 nm. […]

[4] = Plasma stability in human plasma (LC-MS/MS); type: in vitro ADME; conditions: 37° C., 0, 30, 60, 120, 240 minutes
Procedure: as §1, §2

[5] = tested on: human monocyte cell line (THP-1); assay: Cytotoxicity in human monocyte cell line (CCK-8); type: cell-based; conditions: 0.002, 0.02, 0.2, 2 μM, 24 hours, at any concentration
Procedure: The human monocyte cell line (THP-1) was cultured in a 10% fetal bovine serum (Hyclone, Waltham, MA, USA), and a RPMI 1640 medium supplemented with 2.05 mM L-glutamate and antibiotics (100 units/ml penicillin, 100 μg/ml streptomycin), and then seeded in a 96 well microtiter plate at a concentration of 1×10^5 cells/well. The compound of Example 1-2 was diluted to a final concentration of 0.002 μM, 0.02 μM, 0.2 μM, and 2 μM, cells in each well were treated and cultured for 24 hours. Then, the cultured cells were treated with 10 μl of Cell Counting Kit-8 (CCK-8, DOJINDO, Kumamoto, Japan) solution in each well, and then the absorbance was measured at 450 nm for each time zone (1 h, 2 h, 3 h), and the results were derived based on the absorbance data from the last time zone, 3 h. At this time, the cell viability of untreated cells was set as 100% as the reference, and the cell viability of the cells treated with the sample was calculated and shown in FIG. 19.

SMILES: Cc1ccc(C(=C2c3ccccc3C(=O)N2C)c2ccc(C)cc2)cc1 [Example 1-2, 3-(di-p-tolylmethylene)-2-methylisoindolin-1-one]
- amount of the compound remaining in the plasma [1]: remained stable
- biofilm formation of P. aeruginosa [2]: significantly suppressed in a concentration-dependent manner
- cytotoxicity (cell viability, MTT) [3]: did not exhibit cytotoxicity
- amount of the compound remaining in the plasma [4]: remained stable
- cytotoxicity (cell viability, CCK-8) [5]: did not exhibit cytotoxicity
